Measurements published in patent publication US20240287046A1, “COMPOUNDS AND RADIOLIGANDS FOR TARGETING NEUROTENSIN RECEPTOR AND USES THEREOF” (Full-Life Technologies HK Limited, priority 2022, published 2024).

Experiments:
HT-29 tumor-bearing mice = assay: Biodistribution of radionuclide labeled complexes in HT-29 tumor-bearing mice; assay type: in vivo, BALB/c nude mice
Experimental: The BALB/c nude mice (Charles River, Beijing) were utilized to establish the xenografted model for biodistribution study. All animal care and experimental procedure were performed by following the animal protocols approved by the ethics committee of China Institute of Radiation Protection.
Briefly, each mouse was inoculated with approximately 4×10^6 ASPC-1 cells (human pancreatic cancer cell line) or HT-29 cells (human colorectal adenocarcinoma cell line) expressing human NTSR-1 by subcutaneous injection at rear flank. After inoculation, the xenografted tumors were allowed to grow for ˜2-4 weeks till the tumor weight reached to about 0.05 to 0.50 g (0.20 g in average).
Biodistribution studies were performed by administrating the radionuclide labeled test compound at a dose of ˜30-50 μCi (100 μL in 0.9% NaCl, ˜1.11-1.85 MBq, with specific activity 30-250 μCi/nmol) to each animal through tail vein injection.
At different time points after the administration, the mice treated with each compound were euthanized. The tissues and organs of the animals in each group were collected, excised, weighed, and analyzed in a PerkinElmer 2480 WIZARD2γ counter, and the percent injected dose (% ID) and % ID/g of each organ or tissue were calculated.

[1] = tested on: ASPC-1 tumor-bearing mice; assay: Biodistribution of radionuclide labeled complexes in ASPC-1 tumor-bearing mice; assay type: in vivo, BALB/c nude mice
Summary of the method: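 Radiolabeled compound (~30-50 μCi, ~1.11-1.85 MBq, specific activity 30-250 μCi/nmol) was injected i.v. via tail vein into nude mice carrying 0.05-0.50 g subcutaneous NTSR-1-positive human tumors. At set times, tissues were collected, weighed and γ-counted; % ID and % ID/g were calculated.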

SMILES: COc1cccc(OC)c1-c1cc(C(=O)NC2(C(=O)O)C3CC4CC(C3)CC2C4)nn1-c1ccc(OCCCN(C)CCCN(C)C(=O)CN2CCN(CC(=O)[O-])CCN(CC(=O)[O-])CCN(CC(=O)[O-])CC2)cc1C(C)C.[177Lu+3] (stereo not drawn) [^177Lu-I-7]
- % ID/g (72 h) Stomach (HT-29 tumor-bearing mice; Stomach, 72 h): 0.06 ± 0.01 % ID/g
- % ID/g (120 h) Stomach (HT-29 tumor-bearing mice; Stomach, 120 h): 0.061 ± 0.03 % ID/g
- % ID/g (1 h) Tumor (HT-29 tumor-bearing mice; Tumor, 1 h): 17.04 ± 5.68 % ID/g
- % ID/g (4 h) Tumor (HT-29 tumor-bearing mice; Tumor, 4 h): 16.52 ± 12.39 % ID/g
- % ID/g (24 h) Tumor (HT-29 tumor-bearing mice; Tumor, 24 h): 20.35 ± 2.62 % ID/g
- % ID/g (72 h) Tumor (HT-29 tumor-bearing mice; Tumor, 72 h): 9.3 ± 7.53 % ID/g
- % ID/g (120 h) Tumor (HT-29 tumor-bearing mice; Tumor, 120 h): 6.42 ± 3.46 % ID/g
- tumor AUC over 72 hours compared to ^177Lu—C2 [1]: significantly higher tumor AUC
- % ID/g (1 h) Blood ([1]; Blood, 1 h): 9.79 ± 1.66 % ID/g
- % ID/g (4 h) Blood ([1]; Blood, 4 h): 1.8 ± 0.62 % ID/g
- % ID/g (24 h) Blood ([1]; Blood, 24 h): 0.07 ± 0.01 % ID/g
- % ID/g (72 h) Blood ([1]; Blood, 72 h): 0.01 ± 0 % ID/g
- % ID/g (1 h) Femur ([1]; Femur, 1 h): 1.65 ± 0.23 % ID/g
- % ID/g (4 h) Femur ([1]; Femur, 4 h): 0.49 ± 0.25 % ID/g
- % ID/g (24 h) Femur ([1]; Femur, 24 h): 0.12 ± 0.04 % ID/g
- % ID/g (72 h) Femur ([1]; Femur, 72 h): 0.06 ± 0.03 % ID/g
- % ID/g (1 h) Heart ([1]; Heart, 1 h): 3.47 ± 0.56 % ID/g
- % ID/g (4 h) Heart ([1]; Heart, 4 h): 0.58 ± 0.32 % ID/g
- % ID/g (24 h) Heart ([1]; Heart, 24 h): 0.29 ± 0.14 % ID/g
- % ID/g (72 h) Heart ([1]; Heart, 72 h): 0.08 ± 0.01 % ID/g
- % ID/g (1 h) Intestine ([1]; Intestine, 1 h): 2.53 ± 0.58 % ID/g
- % ID/g (4 h) Intestine ([1]; Intestine, 4 h): 1.69 ± 0.45 % ID/g
- % ID/g (24 h) Intestine ([1]; Intestine, 24 h): 0.62 ± 0.04 % ID/g
- % ID/g (72 h) Intestine ([1]; Intestine, 72 h): 0.19 ± 0.07 % ID/g
- % ID/g (1 h) Kidney ([1]; Kidney, 1 h): 2.85 ± 0.45 % ID/g
- % ID/g (4 h) Kidney ([1]; Kidney, 4 h): 2.05 ± 0.48 % ID/g
- % ID/g (24 h) Kidney ([1]; Kidney, 24 h): 1.2 ± 0.17 % ID/g
- % ID/g (72 h) Kidney ([1]; Kidney, 72 h): 0.48 ± 0.12 % ID/g
- % ID/g (1 h) Liver ([1]; Liver, 1 h): 3.93 ± 0.43 % ID/g
- % ID/g (4 h) Liver ([1]; Liver, 4 h): 1.88 ± 1.00 % ID/g
- % ID/g (24 h) Liver ([1]; Liver, 24 h): 0.84 ± 0.09 % ID/g
- % ID/g (72 h) Liver ([1]; Liver, 72 h): 0.23 ± 0.01 % ID/g
- % ID/g (1 h) Lung ([1]; Lung, 1 h): 3.12 ± 1.25 % ID/g
- % ID/g (4 h) Lung ([1]; Lung, 4 h): 1.1 ± 0.49 % ID/g
- % ID/g (24 h) Lung ([1]; Lung, 24 h): 0.43 ± 0.14 % ID/g
- % ID/g (72 h) Lung ([1]; Lung, 72 h): 0.13 ± 0.1 % ID/g
- % ID/g (1 h) Muscle ([1]; Muscle, 1 h): 1.1 ± 0.3 % ID/g
- % ID/g (4 h) Muscle ([1]; Muscle, 4 h): 0.27 ± 0.2 % ID/g
- % ID/g (24 h) Muscle ([1]; Muscle, 24 h): 0.34 ± 0.3 % ID/g
- % ID/g (72 h) Muscle ([1]; Muscle, 72 h): 0.011 ± 0.01 % ID/g
- % ID/g (1 h) Pancreas ([1]; Pancreas, 1 h): 0.67 ± 0.28 % ID/g
- % ID/g (4 h) Pancreas ([1]; Pancreas, 4 h): 0.24 ± 0.22 % ID/g
- % ID/g (24 h) Pancreas ([1]; Pancreas, 24 h): 0.29 ± 0.21 % ID/g
- % ID/g (72 h) Pancreas ([1]; Pancreas, 72 h): 0.02 ± 0.01 % ID/g
- % ID/g (1 h) Spleen ([1]; Spleen, 1 h): 0.63 ± 0.19 % ID/g
- % ID/g (4 h) Spleen ([1]; Spleen, 4 h): 0.58 ± 0.15 % ID/g
- % ID/g (24 h) Spleen ([1]; Spleen, 24 h): 0.23 ± 0.11 % ID/g
- % ID/g (72 h) Spleen ([1]; Spleen, 72 h): 0.06 ± 0.01 % ID/g
- % ID/g (1 h) Stomach ([1]; Stomach, 1 h): 1.01 ± 0.82 % ID/g
- % ID/g (4 h) Stomach ([1]; Stomach, 4 h): 0.58 ± 0.59 % ID/g
- % ID/g (24 h) Stomach ([1]; Stomach, 24 h): 0.21 ± 0.08 % ID/g
- % ID/g (72 h) Stomach ([1]; Stomach, 72 h): 0.04 ± 0.01 % ID/g
- % ID/g (1 h) Tumor ([1]; Tumor, 1 h): 15.27 ± 8.72 % ID/g
- % ID/g (4 h) Tumor ([1]; Tumor, 4 h): 19.97 ± 10.42 % ID/g
- % ID/g (24 h) Tumor ([1]; Tumor, 24 h): 22.83 ± 1.14 % ID/g
- % ID/g (72 h) Tumor ([1]; Tumor, 72 h): 18.07 ± 0.98 % ID/g
- ratio of tumor AUC verse normal organ AUC ([1]; compared to ^177Lu—C2): significantly improved
